According to patent US5990158A, “Carboxylic acid derivatives, method of manufacturing the same and therapeutic agents containing these compounds” (Kotobuki Seiyaku Co., Ltd., priority 1996, dated 1999):

Experiments:
[1] = biological target: T1, MMP-2 (gelatinase A) (Homo sapiens, UniProt P08253); experiment: MMP-2 (gelatinase A) inhibitory activity, FITC-labeled type IV collagen degradation; assay type: biochemical; conditions: 50% inhibition of collagen type IV degradation; activated pro MMP-2 from transfected COS-1 cells; 42° C., 4 h
T1 construct: made in house; host or cells: COS-1 cells transfected with human pro-MMP-2 cDNA (secreted into culture medium)
T1 sequence (P08253 110-660): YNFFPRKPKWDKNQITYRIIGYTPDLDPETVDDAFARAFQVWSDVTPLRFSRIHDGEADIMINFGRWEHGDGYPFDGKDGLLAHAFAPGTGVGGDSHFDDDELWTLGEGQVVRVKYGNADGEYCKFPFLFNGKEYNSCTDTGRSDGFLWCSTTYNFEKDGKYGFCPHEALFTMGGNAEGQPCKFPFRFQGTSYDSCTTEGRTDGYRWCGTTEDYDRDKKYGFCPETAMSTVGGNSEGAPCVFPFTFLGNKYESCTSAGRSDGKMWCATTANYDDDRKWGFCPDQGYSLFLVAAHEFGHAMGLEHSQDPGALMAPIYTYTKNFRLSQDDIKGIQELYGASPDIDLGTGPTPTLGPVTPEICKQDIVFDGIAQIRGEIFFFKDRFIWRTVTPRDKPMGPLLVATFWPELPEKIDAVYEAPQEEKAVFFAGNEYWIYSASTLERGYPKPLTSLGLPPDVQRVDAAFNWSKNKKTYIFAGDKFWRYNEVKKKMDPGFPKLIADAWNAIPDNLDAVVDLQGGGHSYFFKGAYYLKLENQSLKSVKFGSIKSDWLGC
Procedure: (§1) Experiment 2: MMP-2 (gelatinase A) and MMP-9 (gelatinase B) inhibitory activities.
(§2) Pro MMP-2 was obtained from culture medium separated from human pro-MMP-2 cDNA tranfected COS-1 cells. It was activated by 1 mM (p-aminophenyl)mercury acetic acid, and MMP-9, derived human fibrosarcome,was purchased from Yagai Co. Ltd. Inhibition of both enzyme activities were estimated by enzyme assay using type IV collagenase activity assay kit (Yagai Co. Ltd., Biswaz, C. et al., J. Cell.Biochem., 28, 39 (1984)). MMP-2 or MMP-9 (0.01 U/ml), test compound (several concentrations), and FITC-labeled type IV collagen (derived bovine placenta, 25 μg) were incubated in 100 μl of 0.05M Tris - HCl buffer (pH 7.5) containing 200 mM NaCl and 5 mM CaCl2 at 42° C. for 4 h. Inhibitory activity of compound was evaluated by same as that of MMP-1 assay. Unchanged type IV collagen was precipitated by centrifugation, and the degradation percent of substrate was calculated by comparison with a fluorescence intensity of heat denatured substrate as 100%. Inhibition of enzyme activity was expressed as an IC50 value which was the concentration of test compound necessary to produce 50% inhibition of collagen type IV degradation by enzyme.

[2] = biological target: T2, MMP-9 (gelatinase B) (Homo sapiens, UniProt P14780); experiment: MMP-9 (gelatinase B) inhibitory activity, FITC-labeled type IV collagen degradation; assay type: biochemical; conditions: 50% inhibition of collagen type IV degradation; MMP-9 derived from human fibrosarcoma; 42° C., 4 h
T2 construct: purchased Yagai Co. Ltd; host or cells: human fibrosarcoma
T2 sequence (P14780 94-707): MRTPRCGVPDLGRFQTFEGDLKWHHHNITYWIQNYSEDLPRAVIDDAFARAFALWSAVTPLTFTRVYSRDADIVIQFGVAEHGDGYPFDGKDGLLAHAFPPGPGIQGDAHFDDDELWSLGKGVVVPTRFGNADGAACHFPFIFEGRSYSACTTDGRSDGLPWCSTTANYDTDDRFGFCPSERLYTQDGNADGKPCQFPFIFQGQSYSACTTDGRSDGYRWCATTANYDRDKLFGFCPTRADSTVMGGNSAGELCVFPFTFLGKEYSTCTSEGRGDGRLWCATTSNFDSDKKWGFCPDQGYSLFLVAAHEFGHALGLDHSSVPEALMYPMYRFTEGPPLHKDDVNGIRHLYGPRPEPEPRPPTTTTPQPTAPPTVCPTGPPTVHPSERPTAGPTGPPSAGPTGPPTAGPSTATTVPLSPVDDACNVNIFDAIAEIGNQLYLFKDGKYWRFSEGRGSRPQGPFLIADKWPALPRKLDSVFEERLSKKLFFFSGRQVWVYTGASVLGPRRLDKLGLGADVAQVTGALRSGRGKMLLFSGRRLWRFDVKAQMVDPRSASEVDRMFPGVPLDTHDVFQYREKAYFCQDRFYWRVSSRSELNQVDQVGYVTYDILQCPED
Procedure: as §1, §2

IC50 [1] [nM] | IC50 [2] [nM] | SMILES
200 | 51 | CCOc1ccc(C[C@H](NC(=O)[C@H](CCCCOc2ccc(OC)cc2)CC(=O)O)C(=O)NC)cc1 [Compound 23, (2S)-2-[(2R)-2-(1'-Carboxymethyl)-6-[(4-methoxyphenyl)oxy]hexanoyl]amino-3-(4-ethoxy)phenylpropanoylmethylamide]
13 | 2.3 | CNC(=O)[C@H](Cc1ccccc1)NC(=O)[C@H](CCOc1ccc(OC)cc1)CC(=O)NO [Compound 38, N-[(2R)-2-(2'-Hydroxyamino-2'-oxo-ethyl)-4-[(4-methoxyphenyl)oxy]butyloyl]-L-phenylalanine N-Methylamide]
250 | 5.4 | CNC(=O)[C@H](Cc1ccc(OC)cc1)NC(=O)[C@H](CCCOc1ccc(OC)cc1)CC(=O)O [Compound 18]
2.5 | 0.28 | CNC(=O)[C@H](Cc1ccc(OC)cc1)NC(=O)[C@H](CCCCOc1ccc(OC)cc1)CC(=O)NO [Compound 51, (2S)-2-[(2R)-2-(2'-Hydroxyamino-2'-oxo-ethyl)-6-[(4-methoxyphenyl)oxy]-hexanoyl]amino-3-(4-methoxy)phenylpropanoylmethylamide]
500 | 120 | CCOc1ccc(OCCC[C@H](CC(=O)OCc2oc(=O)oc2C)C(=O)N[C@@H](Cc2ccccc2)C(=O)NC)cc1 [Compound 62]
1600 | 140 | CNC(=O)[C@H](Cc1ccc(OC)cc1)NC(=O)[C@H](CCCOc1ccc(OC)cc1)CC(=O)OCc1oc(=O)oc1C [Compound 63, (2S)-2-[(2R)-2-(2'-(5-Methyl-2-oxo-1,3-dioxolen-4-yl)-methylene-oxy-2'-oxo-ethyl]-5-[(4-methoxyphenyl)oxy]-pentanoyl]amino-3-(4-methoxy)phenylpropanoylmethylamide]
26 | 0.42 | COc1ccc(C[C@H](NC(=O)[C@H](CCCOc2ccc(OC)cc2)CC(=O)NO)C(=O)NC(C)(C)C)cc1 [Compound 49, (2S)-2-[(2R)-2-(2'-Hydroxyamino-2'-oxo-ethyl)-5-[(4-methoxyphenyl)oxy]-pentanoyl]amino-3-(4-methoxy)phenyl-propanoyl-tert-butylamide]
0.45 | 0.052 | COc1ccc(C[C@H](NC(=O)[C@H](CCCOc2ccc(OC)cc2)CC(=O)NO)C(=O)NCCS(N)(=O)=O)cc1 [Compound 50, 2-[(2S)-2-[(2R)-2-(2'-Hydroxyamino-2'-oxo-ethyl)-5-[(4-methoxyphenyl)oxy]-pentanoyl]amino-3-(4-methoxy)phenylpropanoyl]amino-ethanesulfonamide]
140 | 7.2 | CNC(=O)[C@@H](NC(=O)[C@H](CCCOc1ccc(OC)cc1)CC(=O)O)C(C)(C)C [Compound 24, N-[(2R)-2-(1'-Carboxymethyl)-5-[(4-methoxyphenyl)oxy]pentanoyl]-L-tert-leucine N-Methylamide]
0.97 | 0.14 | CCOc1ccc(OCCC[C@H](CC(=O)NO)C(=O)N[C@@H](Cc2ccccc2)C(=O)NC)cc1 [Compound 43, N-[(2R)-2-(2'-Hydroxyamino-2'-oxo-ethyl)-5-[(4-ethoxy-phenyl)oxy]pentanoyl]-L-phenylalanine N-Methylamide]
3.2 | 0.32 | CCOc1ccc(C[C@H](NC(=O)[C@H](CCCCOc2ccc(OC)cc2)CC(=O)NO)C(=O)NC)cc1 [Compound 53, (2S)-2-[(2R)-2-(2'-Hydroxyamino-2'-oxo-ethyl)-6-[(4-methoxyphenyl)oxy]-hexanoyl]amino-3-(4-ethoxy)phenylpropanoylmethylamide]
3200 | 400 | CNC(=O)[C@H](Cc1ccccc1)NC(=O)[C@H](CCc1ccc2cccccc1-2)CC(=O)NO [Compound 32, N-[(2R)-2-(2'-Hydroxyamino-2'-oxo-ethyl)-4-(azulene-1-yl)-butyloyl]-L-phenylanine N-Methylamide]
0.36 | 0.051 | COc1ccc(OCCC[C@H](CC(=O)NO)C(=O)N[C@@H](Cc2ccccc2)C(=O)NCCS(N)(=O)=O)cc1 [Compound 42, 2-[N-[(2R)-2-(2'-Hydroxyamino-2'-oxo-ethyl)-5-[(4-methoxyphenyl)oxy]pentanoyl]-L-phenylalanyl]amino-ethanesulfonamide]
21 | 0.23 | COc1ccc(OCCC[C@H](CC(=O)NO)C(=O)N[C@H](C(=O)NC(C)(C)C)C(C)(C)C)cc1 [Compound 55, N-[(2R)-2-(2'-Hydroxyamino-2'-oxo-ethyl)-5-[(4-methoxyphenyl)oxy]-pentanoyl]-L-tert-leucine N-tert-Butylamide]
8.8 | 1.4 | CCOc1ccc(OCC[C@H](CC(=O)NO)C(=O)N[C@@H](Cc2ccccc2)C(=O)NC)cc1 [Compound 39, N-[(2R)-2-(2'-Hydroxyamino-2'-oxo-ethyl)-4-[(4-ethoxy-phenyl)oxy]butyloyl]-L-phenylalanine N-Methylamide]
1.3 | 0.41 | CNC(=O)[C@H](Cc1ccccc1)NC(=O)[C@H](CCCCOc1ccc(OC)cc1)CC(=O)NO [Compound 44, N-[(2R)-2-(2'-Hydroxyamino-2'-oxo-ethyl)-6-[(4-methoxyphenyl)oxy]hexanoyl]-L-phenylalanine N-Methylamide]
11 | 1.2 | CNC(=O)[C@H](Cc1ccc(OC)cc1)NC(=O)[C@H](CCOc1ccc(OC)cc1)CC(=O)NO [Compound 47, (2S)-2-[(2R)-2-(2'-Hydroxyamino-2'-oxo-ethyl)-4-[(4-methoxyphenyl)oxy]-butyloyl]amino-3-(4-methoxy)phenylpropanoylmethylamide]
18 | 13 | CCOc1ccc(OCCC[C@H](CC(=O)O)C(=O)N[C@@H](Cc2ccccc2)C(=O)NC)cc1 [Compound 13, N-[(2R)-2-(1'-Carboxymethyl)-5-[(4-ethoxyphenyl)oxy]pentanoyl]-L-phenylalanine N-Methylamide]
1 | 0.12 | CCOc1ccc(C[C@H](NC(=O)[C@H](CCCOc2ccc(OC)cc2)CC(=O)NO)C(=O)NC)cc1 [Compound 52, (2S)-2-[(2R)-2-(2'-Hydroxyamino-2'-oxo-ethyl)-5-[(4-methoxyphenyl)oxy]-pentanoyl]amino-3-(4-ethoxy)phenylpropanoylmethylamide]
> 10000 | 6800 | CNC(=O)[C@@H](NC(=O)[C@@H](CC(=O)NO)CC(C)(C)COC)C(C)(C)C [Compound 60, N-[(2R)-2-(2'-Hydroxyamino-2'-oxo-ethyl)-4,4-dimethyl-5-methoxy-pentanoyl]-L-tert-leucine N-Methylamide]
> 10000 | 2800 | CNC(=O)[C@H](Cc1ccccc1)NC(=O)[C@H](CCCc1ccc2cccccc1-2)CC(=O)O [Compound 5, N-[(2R)-2-(1'-Carboxymethyl)-5-(azulene-1-yl)pentanoyl]-L-phenylalanine N-Methylamide]
> 10000 | 2200 | CNC(=O)[C@H](Cc1ccccc1)NC(=O)[C@@H](CC(=O)NO)CC(C)(C)COC [Compound 58, N-[(2R)-2-(2'-Hydroxyamino-2'-oxo-ethyl)-4,4-dimethyl-5-methoxy-pentanoyl]-L-phenylalanine N-Methylamide]
100 | 14 | COc1ccc(OCCC[C@H](CC(=O)O)C(=O)N[C@@H](Cc2ccccc2)C(=O)NC(C)(C)C)cc1 [Compound 11]
140 | 9.5 | CCOc1ccc(C[C@H](NC(=O)[C@H](CCCOc2ccc(OC)cc2)CC(=O)O)C(=O)NC)cc1 [Compound 22, (2S)-2-[(2R)-2-(1'-Carboxymethyl)-5-[(4-methoxyphenyl)-oxy]pentanoyl]amino-3-(4-ethoxy)phenylpropanoylmethylamide]
160 | 52 | CNC(=O)[C@H](Cc1ccc(OC)cc1)NC(=O)[C@H](CCCCOc1ccc(OC)cc1)CC(=O)O [Compound 21, (2S)-2-[(2R)-2-(1'-Carboxymethyl)-6-[(4-methoxyphenyl)-oxy]hexanoyl]amino-3-(4-methoxy)phenylpropanoylmethylamide]
